Patent publication US9023813B2 (Nutek Pharma Ltd., priority 2012, dated 2015)
Where “and” joins values, the source holds several entries; their conditions need not be identical. Equal values may be shown once. Entries after “also recorded” stand apart in the source; their conditions may differ.

Columns and labels:
[1] = system: male Sprague Dawley rats; assay: Clinical observations of rats during administration of propofol analogs in the pharmacokinetics study
Description: (§1) Blood samples were to be taken pre-dose, during dose and post dose at designated intervals, with the blood quickly processed and stored at −70° C. until analysis.
(§2) Formulations were prepared on the morning of the dosing day and each was passed through a 0.22 μm filter prior to being administered to animals. A standard dose of 0.168 mmol/Kg per analog was administered to each of the rats. […] Analog stability in the formulations was verified by preparing each formulation and harvesting 200 μL aliquots at 0, 1, 2 and 8 hr while standing at room temperature. After harvesting, each sample was immediately frozen in dry ice until analysis; concentrations of test compounds in the samples were examined by HPLC-UV.
(§3) The animals were surgically prepared with indwelling cannula, double cannulation in carotid artery and jugular vein for i.v. infusion. The anesthetic pentobarbital was used during the surgery, and the animals were allowed to recover 3-5 days after surgery before the formulation was dosed. The dose formulation was administered intravenously via the jugular vein cannula. The 16.8 μmol/mL formulation was administered i.v. at a rate of 1 mL/Kg/min for 10 min.

[2] = Pharmacokinetics: plasma concentrations of prodrug and propofol after intravenous infusion (LC/MS/MS); conditions: for Mean concentration of prodrug and propofol in rat plasma after intravenous infusion administration / AUCinf / MRTinf / AUClast / CLp / Vdss: analyte = administered compound; for AUCinf / MRTinf: extrapolated to infinity; for AUClast: to last detected concentration; for CLp: total body clearance, dose/AUCinf; for Vdss: volume of distribution; for Mean Concentration of Propofol in Rat Plasma After Intravenous Administration: analyte = propofol released from the administered compound
Description: as §1, §2, §3
Approximately 0.20 mL blood was collected at each designated time point from carotid artery via a catheter. A total of 12 plasma samples were taken from each animal: 1 pre-dose; 2 during the dose (5 into the 10 min infusion and one just prior termination of the 10 min infusion) and 9 post-infusion at 2, 5, 15, 30 min and 1, 2, 3, 4, and 6 hr post-dose. All blood samples were transferred into plastic microcentrifuge tubes containing 5 μL of K2-EDTA (0.5M) as anti-coagulant and placed on ice until processed for plasma. Blood samples were processed for plasma by centrifugation at approximately 5° C. Plasma samples were then stored in 1.5 mL tubes, quick frozen over dry ice and kept at −70±10° C. until LC/MSMS analysis.
For each, a minimum of 6 standard point curve runs in duplicates, and minimum of 5 standards were back calculated to within ±20% of their nominal concentrations. The LLOQ of each test article in plasma was established and 6 QC samples were included in assay runs of samples to ensure assay performance.
Data Analysis. Plasma concentration versus time data was analyzed by non-compartmental approaches using the WinNonlin software program (version 5.2, Pharsight, Mountain View, Calif.) and the pharmacokinetic parameters T½, CL, Vss, AUC(0-t), AUC(0-inf), MRT, and graphs of plasma concentration versus time calculated for each.

[3] = cited from earlier work
[4] = Solubility determination in D2O by 1H NMR with DSS internal standard
[5] = time post-10 min i.v. infusion, 0.168 mmol/Kg
[6] = individual rats, post-10 min infusion, vehicle 10% Tween80

CC(C)c1cccc(C(C)C)c1O [Propofol, 2,6-diisopropylphenol, reference compound]
Rats soporous at [1, 5]: Rats soporous at about 4 min and | Rats recovered at ([1]; time post-10 min infusion, 5% cremophor vehicle): recovered at about 1.5 hr | Mean concentration of prodrug and propofol in rat plasma after intravenous infusion administration ([2]; Time (h) 0.083): 21.795 µM | Mean concentration of prodrug and propofol in rat plasma after intravenous infusion administration ([2]; Time (h) 0.167): 31.51 µM | Mean concentration of prodrug and propofol in rat plasma after intravenous infusion administration ([2]; Time (h) 0.2): 19.613 µM | Mean concentration of prodrug and propofol in rat plasma after intravenous infusion administration ([2]; Time (h) 0.25): 13.37 µM | Mean concentration of prodrug and propofol in rat plasma after intravenous infusion administration ([2]; Time (h) 0.417): 3.827 µM | Mean concentration of prodrug and propofol in rat plasma after intravenous infusion administration ([2]; Time (h) 0.667): 3.122 µM | Mean concentration of prodrug and propofol in rat plasma after intravenous infusion administration ([2]; Time (h) 1.166): 1.642 µM | Mean concentration of prodrug and propofol in rat plasma after intravenous infusion administration ([2]; Time (h) 2.166): 0.841 µM | Mean concentration of prodrug and propofol in rat plasma after intravenous infusion administration ([2]; Time (h) 3.166): 0.332 µM | Mean concentration of prodrug and propofol in rat plasma after intravenous infusion administration ([2]; Time (h) 4.166): 0.259 µM | Mean concentration of prodrug and propofol in rat plasma after intravenous infusion administration ([2]; Time (h) 6.166): 0.23 µM | AUCinf [2]: 12.634 µM·h | MRTinf [2]: 3.48 h | AUClast [2]: 10.576 µM·h | CLp [2]: 264.7 mL/min/kg | Vdss [2]: 61.2 L/kg | Mean Concentration of Propofol in Rat Plasma After Intravenous Administration ([2]; Time (h) 0): BQL | Onset ([3]; anesthetic onset): < 30 s | Duration of action ([3]; in vivo): ~5 min | Pain on administration (share of uses) ([3]; standard lipid formulation): 80%

CC(C)c1cccc(C(C)C)c1OC(=O)NCCO[C@@H]1O[C@H](CO)[C@@H](O)[C@H](O)[C@H]1O [Compound 17]
Rat died at infusion of ([1]; Additional Rat 4, during infusion, vehicle 10% Tween80): infusion of 8 min. | Rat died at ([1]; Rat 3, post-10 min infusion, vehicle 10% Tween80): 1.5 h | Overall outcome in rats ([1]; in its vehicle (10% tween80 cosolvent)): poor results | Rat died at [1, 6]: died at 15 min. and 40 min | Rat recovered (from breathlessness) at [1, 6]: recovered at 10 min.; died at | Cause of death ([1]; individual rats, vehicle 10% Tween80): blood hemolysis; also recorded: hematuria | Mean concentration of prodrug and propofol in rat plasma after intravenous infusion administration ([2]; Time (h) 0): BQL | Mean concentration of prodrug and propofol in rat plasma after intravenous infusion administration ([2]; Time (h) 0.083): 178.796 µM | Mean concentration of prodrug and propofol in rat plasma after intravenous infusion administration ([2]; Time (h) 0.167): 312.678 µM | Mean concentration of prodrug and propofol in rat plasma after intravenous infusion administration ([2]; Time (h) 0.2): 152.206 µM | Mean concentration of prodrug and propofol in rat plasma after intravenous infusion administration ([2]; Time (h) 0.25): 119.535 µM | Mean concentration of prodrug and propofol in rat plasma after intravenous infusion administration ([2]; Time (h) 0.417): 35.206 µM | Mean concentration of prodrug and propofol in rat plasma after intravenous infusion administration ([2]; Time (h) 0.667): 19.837 µM | Mean concentration of prodrug and propofol in rat plasma after intravenous infusion administration ([2]; Time (h) 1.166): 8.012 µM | Mean concentration of prodrug and propofol in rat plasma after intravenous infusion administration ([2]; Time (h) 2.166): 2.083 µM | Mean concentration of prodrug and propofol in rat plasma after intravenous infusion administration ([2]; Time (h) 3.166): 0.3907 µM | Mean concentration of prodrug and propofol in rat plasma after intravenous infusion administration ([2]; Time (h) 4.166): 0.0825 µM | Mean concentration of prodrug and propofol in rat plasma after intravenous infusion administration ([2]; Time (h) 6.166): 0.0106 µM | AUCinf [2]: 71.764 µM·h | MRTinf [2]: 0.277 h | AUClast [2]: 61.644 µM·h | CLp [2]: 39.1 mL/min/kg | Vdss [2]: 0.657 L/kg | Mean Concentration of Propofol in Rat Plasma After Intravenous Administration ([2]; Time (h) 0): BQL | Mean Concentration of Propofol in Rat Plasma After Intravenous Administration ([2]; Time (h) 2.166): BQL | Mean Concentration of Propofol in Rat Plasma After Intravenous Administration ([2]; Time (h) 3.166): BQL | Mean Concentration of Propofol in Rat Plasma After Intravenous Administration ([2]; Time (h) 4.166): BQL | Mean Concentration of Propofol in Rat Plasma After Intravenous Administration ([2]; Time (h) 6.166): BQL | Water solubility (qualitative) ([4]; reason for cosolvent): poor

CC(C)c1cccc(C(C)C)c1OC(=O)OCCCO[C@H]1O[C@H](CO)[C@@H](O)[C@H](O)[C@H]1O [Compound 33]
Rats recovered at [1, 5]: recovered at about 30 min | Mean concentration of prodrug and propofol in rat plasma after intravenous infusion administration ([2]; Time (h) 0): BQL | Mean concentration of prodrug and propofol in rat plasma after intravenous infusion administration ([2]; Time (h) 0.083): 0.0165 µM | Mean concentration of prodrug and propofol in rat plasma after intravenous infusion administration ([2]; Time (h) 0.167): 0.0231 µM | Mean concentration of prodrug and propofol in rat plasma after intravenous infusion administration ([2]; Time (h) 0.2): 0.00959 µM | Mean concentration of prodrug and propofol in rat plasma after intravenous infusion administration ([2]; Time (h) 0.25): BQL | Mean concentration of prodrug and propofol in rat plasma after intravenous infusion administration ([2]; Time (h) 0.417): BQL | Mean concentration of prodrug and propofol in rat plasma after intravenous infusion administration ([2]; Time (h) 0.667): BQL | Mean concentration of prodrug and propofol in rat plasma after intravenous infusion administration ([2]; Time (h) 1.166): BQL | Mean concentration of prodrug and propofol in rat plasma after intravenous infusion administration ([2]; Time (h) 2.166): BQL | Mean concentration of prodrug and propofol in rat plasma after intravenous infusion administration ([2]; Time (h) 3.166): BQL | Mean concentration of prodrug and propofol in rat plasma after intravenous infusion administration ([2]; Time (h) 4.166): BQL | Mean concentration of prodrug and propofol in rat plasma after intravenous infusion administration ([2]; Time (h) 6.166): BQL | AUClast [2]: 0.00304 µM·h | Mean Concentration of Propofol in Rat Plasma After Intravenous Administration ([2]; Time (h) 0): BQL | Mean Concentration of Propofol in Rat Plasma After Intravenous Administration ([2]; Time (h) 4.166): BQL | Mean Concentration of Propofol in Rat Plasma After Intravenous Administration ([2]; Time (h) 6.166): BQL | Pro-drug behaviour (release of propofol in vivo) ([2]; rats, releasing the propofol in a matter of minutes after infusion): very efficient pro-drugs | Relative solubility [4]: 5.2 (8.1)^4
